According to PubChem BioAssay (NCI):
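Tested at 5 concentrations; 48 h exposure; 96-well plates; endpoints linearly interpolated, else capped at highest concentration. TGI is the concentration that stops growth completely.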

Assays:
Test in all cases: NCI-60 cell line screen, 48 h
HCT-116 colon = system: HCT-116 colon
786-0 renal = system: 786-0 renal
SK-MEL-28 melanoma = system: SK-MEL-28 melanoma
SK-OV-3 ovarian = system: SK-OV-3 ovarian
BT-549 breast = system: BT-549 breast
KM12 colon = system: KM12 colon
SK-MEL-5 melanoma = system: SK-MEL-5 melanoma
UO-31 renal = system: UO-31 renal
SNB-75 CNS = system: SNB-75 CNS
SNB-19 CNS = system: SNB-19 CNS
OVCAR-4 ovarian = system: OVCAR-4 ovarian
SK-MEL-2 melanoma = system: SK-MEL-2 melanoma
SF-295 CNS = system: SF-295 CNS
A549 NSCLC = system: A549 NSCLC
DU-145 prostate = system: DU-145 prostate
CAKI-1 renal = system: CAKI-1 renal
NCI/ADR-RES ovarian = system: NCI/ADR-RES ovarian
MDA-MB-231 breast = system: MDA-MB-231 breast
HOP-62 NSCLC = system: HOP-62 NSCLC

## N#CC1C(=O)NC23CCCCC2C1c1ccccc1O3 (centres undefined)
HCT-116 colon
  TGI: > 100 µM
786-0 renal
  TGI: > 100 µM
SK-MEL-28 melanoma
  TGI: > 100 µM
SK-OV-3 ovarian
  TGI: > 100 µM
BT-549 breast
  TGI: > 100 µM
KM12 colon
  TGI: > 100 µM
SK-MEL-5 melanoma
  TGI: > 100 µM
UO-31 renal
  TGI: > 100 µM
SNB-75 CNS
  TGI: > 100 µM
SNB-19 CNS
  TGI: > 100 µM
OVCAR-4 ovarian
  TGI: > 100 µM
SK-MEL-2 melanoma
  TGI: > 100 µM
SF-295 CNS
  TGI: > 100 µM
A549 NSCLC
  TGI: > 100 µM
DU-145 prostate
  TGI: > 100 µM
CAKI-1 renal
  TGI: > 100 µM
NCI/ADR-RES ovarian
  TGI: > 100 µM
MDA-MB-231 breast
  TGI: > 100 µM
HOP-62 NSCLC
  TGI: > 100 µM

## Cc1cc(C)c(-n2[nH]c(=O)n(C)c2=O)c(C)c1
HCT-116 colon
  TGI: > 100 µM
786-0 renal
  TGI: > 100 µM
SK-MEL-28 melanoma
  TGI: > 100 µM
SK-OV-3 ovarian
  TGI: > 100 µM
BT-549 breast
  TGI: > 100 µM
KM12 colon
  TGI: > 100 µM
SK-MEL-5 melanoma
  TGI: > 100 µM
UO-31 renal
  TGI: > 100 µM
SNB-75 CNS
  TGI: > 100 µM
SNB-19 CNS
  TGI: > 100 µM
OVCAR-4 ovarian
  TGI: > 100 µM
SK-MEL-2 melanoma
  TGI: > 100 µM
A549 NSCLC
  TGI: > 100 µM
DU-145 prostate
  TGI: > 100 µM
CAKI-1 renal
  TGI: > 100 µM
NCI/ADR-RES ovarian
  TGI: > 100 µM
MDA-MB-231 breast
  TGI: > 100 µM

## O=C1C(Cl)=C(Nc2ccc(S(=O)(=O)O)cc2)C(=O)c2ccccc21
HCT-116 colon
  TGI: > 100 µM
786-0 renal
  TGI: 84.6 µM
SK-MEL-28 melanoma
  TGI: 83.2 µM
BT-549 breast
  TGI: > 100 µM
KM12 colon
  TGI: 56.3 µM
SK-MEL-5 melanoma
  TGI: 28 µM
UO-31 renal
  TGI: 29.2 µM
SNB-75 CNS
  TGI: > 100 µM
SNB-19 CNS
  TGI: > 100 µM
OVCAR-4 ovarian
  TGI: > 100 µM
SK-MEL-2 melanoma
  TGI: 59.6 µM
SF-295 CNS
  TGI: 82.5 µM
A549 NSCLC
  TGI: 58.7 µM
DU-145 prostate
  TGI: 36.5 µM
CAKI-1 renal
  TGI: > 100 µM
NCI/ADR-RES ovarian
  TGI: > 100 µM
MDA-MB-231 breast
  TGI: > 100 µM
HOP-62 NSCLC
  TGI: > 100 µM

## C[n+]1ccc(/C2=C3\C=CC(=N3)/C(c3cc[n+](C)cc3)=c3/cc/c([nH]3)=C(\c3cc[n+](C)cc3)C3=N/C(=C(/c4cc[n+](C)cc4)C4C=CC2N4)C=C3)cc1
HCT-116 colon
  TGI: > 100 µM
786-0 renal
  TGI: > 100 µM
SK-MEL-28 melanoma
  TGI: > 100 µM
SK-OV-3 ovarian
  TGI: > 100 µM
BT-549 breast
  TGI: > 100 µM
KM12 colon
  TGI: > 100 µM
SK-MEL-5 melanoma
  TGI: > 100 µM
UO-31 renal
  TGI: > 100 µM
SNB-75 CNS
  TGI: > 100 µM
SNB-19 CNS
  TGI: > 100 µM
OVCAR-4 ovarian
  TGI: > 100 µM
SF-295 CNS
  TGI: > 100 µM
A549 NSCLC
  TGI: > 100 µM
DU-145 prostate
  TGI: > 100 µM
CAKI-1 renal
  TGI: > 100 µM
NCI/ADR-RES ovarian
  TGI: > 100 µM
MDA-MB-231 breast
  TGI: > 100 µM
HOP-62 NSCLC
  TGI: > 100 µM

## C/C(=N\Nc1ccc([N+](=O)[O-])cc1[N+](=O)[O-])c1sc(-n2nc(-c3ccccc3)cc2-c2ccccc2)nc1C
HCT-116 colon
  TGI: > 100 µM
786-0 renal
  TGI: > 100 µM
SK-MEL-28 melanoma
  TGI: > 100 µM
SK-OV-3 ovarian
  TGI: > 100 µM
BT-549 breast
  TGI: > 100 µM
KM12 colon
  TGI: > 100 µM
SK-MEL-5 melanoma
  TGI: > 100 µM
UO-31 renal
  TGI: > 100 µM
SNB-75 CNS
  TGI: > 100 µM
SNB-19 CNS
  TGI: > 100 µM
OVCAR-4 ovarian
  TGI: > 100 µM
SF-295 CNS
  TGI: > 100 µM
DU-145 prostate
  TGI: > 100 µM
CAKI-1 renal
  TGI: > 100 µM
NCI/ADR-RES ovarian
  TGI: 69.8 µM
MDA-MB-231 breast
  TGI: > 100 µM
HOP-62 NSCLC
  TGI: > 100 µM
